The text below walks through data of patent publication US9434711B2 (Janssen Pharmaceutica, NV, priority 2007, dated 2016).

Where two headings read alike, the source gives them in different places.

In the assay the target is canine TRPM8 (Canis lupus familiaris, UniProt Q1A7N1). The assay is described as follows: In Vitro Canine TRPM8 Functional Assay (Ca2+ fluorescence, icilin activation). It is filed as cell-based. The settings on record: for IC50: read-out: IC50; for inhibition at 0.2 µM: read-out: % Inh @ 0.2; for inhibition at 0.5 µM: compound at 0.5 μM, read-out: % Inh @ 0.5. The method, then:
The functional activity of compounds of the formula (I) was determined by measuring changes in intracellular calcium concentration using a Ca^2+-sensitive fluorescent dye. The changes in fluorescent signal were monitored by a fluorescence plate reader, either a FLIPR™ (Molecular Devices) or FDSS (Hamamatsu).
At 24 hrs prior to assay, HEK293 cells stably expressing canine TRPM8 were seeded in culture medium in black wall, clear-base poly-D-lysine coated 384-well plates (BD Biosciences, NJ, USA) and grown overnight in 5% CO2 at 37° C. On assay day, growth media was removed and cells were loaded with Calcium 3 Dye (Molecular Devices) for 35 min at 37° C., under 5% CO2 and then for 25 min at room temperature and atmosphere. Subsequently, cells were tested for agonist-induced increases in intracellular Ca^2+ levels using FLIPR™ or FDSS. Cells were challenged with a compound of the Formula (I) (at varying concentrations) and intracellular Ca^2+ was measured for 5 min prior to the addition of icilin to all wells to achieve a final concentration that produces approximately an 80% maximal response. EC50 or IC50 values for compounds of the present invention were determined from eight-point dose-response studies. Curves were generated using the average of quadruplicate wells for each data point.

[1] abbreviates: HEK293 cells stably expressing canine TRPM8, icilin activation, eight-point dose-response.
The mark [2] stands for this setting: compound at 0.2 μM, canine TRPM8, icilin activation.
Setting [3] is: canine TRPM8, icilin activation.

canine TRPM8, sequence (Q1A7N1 1-1104): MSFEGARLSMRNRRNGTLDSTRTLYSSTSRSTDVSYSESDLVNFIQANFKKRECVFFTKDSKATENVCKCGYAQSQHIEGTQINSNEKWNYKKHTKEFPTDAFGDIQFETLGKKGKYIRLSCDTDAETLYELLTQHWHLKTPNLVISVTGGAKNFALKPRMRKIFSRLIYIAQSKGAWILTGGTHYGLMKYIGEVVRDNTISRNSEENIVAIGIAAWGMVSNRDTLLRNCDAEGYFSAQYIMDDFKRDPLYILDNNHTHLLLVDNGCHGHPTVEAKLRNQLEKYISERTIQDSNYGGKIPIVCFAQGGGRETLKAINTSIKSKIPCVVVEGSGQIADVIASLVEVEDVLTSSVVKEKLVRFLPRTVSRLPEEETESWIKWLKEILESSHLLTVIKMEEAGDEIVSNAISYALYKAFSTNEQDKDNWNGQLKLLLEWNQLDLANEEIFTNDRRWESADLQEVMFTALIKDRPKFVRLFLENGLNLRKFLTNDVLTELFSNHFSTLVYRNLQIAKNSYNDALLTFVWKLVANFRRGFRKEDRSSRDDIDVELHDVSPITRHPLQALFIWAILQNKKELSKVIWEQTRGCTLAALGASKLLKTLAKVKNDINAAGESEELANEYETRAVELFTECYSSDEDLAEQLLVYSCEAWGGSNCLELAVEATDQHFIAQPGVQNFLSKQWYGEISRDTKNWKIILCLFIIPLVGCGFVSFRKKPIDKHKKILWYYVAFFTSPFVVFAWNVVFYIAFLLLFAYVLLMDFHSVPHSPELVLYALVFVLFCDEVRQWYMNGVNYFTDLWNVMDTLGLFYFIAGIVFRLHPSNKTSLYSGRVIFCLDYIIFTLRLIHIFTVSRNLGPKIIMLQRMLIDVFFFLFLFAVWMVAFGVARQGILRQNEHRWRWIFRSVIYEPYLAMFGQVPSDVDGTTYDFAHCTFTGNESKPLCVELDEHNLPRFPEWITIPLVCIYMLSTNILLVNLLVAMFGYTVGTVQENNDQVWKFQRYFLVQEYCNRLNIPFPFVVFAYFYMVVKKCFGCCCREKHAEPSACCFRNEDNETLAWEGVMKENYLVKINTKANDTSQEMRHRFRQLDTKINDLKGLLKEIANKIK

The IC50 is the concentration that gives 50% inhibition. For the compound `CCS(=O)(=O)N(Cc1ccc(F)c(C(F)(F)F)c1)c1sc2ccccc2c1Cl` [Compound 190, N-(3-Chloro-benzo[b]thiophen-2-yl)-N-(4-fluoro-3-trifluoromethyl-benzyl)-ethanesulfonamide], the IC50 under setting [1] is 15.2 nM. The inhibition at 0.2 µM under setting [2] is 101%.
As for `Cc1c(N(CCC2CC2)S(=O)(=O)c2cnccc2-c2nnn[nH]2)sc2ccccc12` [Compound 804, N-(3-Methyl-benzo[b]thiophen-2-yl)-N-(cyclopropyl-ethyl)-4-(1H-tetrazol-5-yl)-pyridin-3-ylsulfonamide], under “HEK293 cells stably expressing canine TRPM8, icilin activation, average of two or more determinations”, the IC50 was determined as 11.1 nM.
`CCS(=O)(=O)N(CC1CC1)c1sc2ccccc2c1C(C)=O` [Compound 122, N-(3-Acetyl-benzo[b]thiophen-2-yl)-N-(cyclopropylmethyl)-ethanesulfonamide]: the inhibition at 0.2 µM under setting [2] worked out at 23%.
With `Cc1c(N(Cc2ccc(OC(F)(F)F)cc2)S(=O)(=O)c2nc3ccccc3[nH]2)sc2ccccc12` [Compound 729, N-(3-Methyl-benzo[b]thiophen-2-yl)-N-(4-trifluoromethoxy-benzyl)-1H-benzimidazole-2-sulfonamide], the inhibition at 0.2 µM under setting [2] is 75%.
On to `Cc1c(N(CCOC(C)(C)C)S(=O)(=O)c2ccccc2)sc2ccccc12` [Compound 100, N-(2-tert-Butoxy-ethyl)-N-(3-methyl-benzo[b]thiophen-2-yl)-benzenesulfonamide], for which, under setting [1], the IC50 was determined as 6.8 nM. The inhibition at 0.2 µM under setting [2] stood at 103%.
As for `Cc1c(N(Cc2cccc3cccnc23)S(=O)(=O)c2cccc3cccnc23)sc2ccccc12` [Compound 22, N-(3-Methyl-benzo[b]thiophen-2-yl)-N-(quinolin-8-ylmethyl)-quinoline-8-sulfonamide], the half-maximal inhibitory concentration (IC50) under setting [1] stood at 32 nM. For the same compound, the inhibition at 0.5 µM under setting [3] came to 98%.
Consider `CN(C)S(=O)(=O)N(CC1CC1)c1sc2ccccc2c1Br` [Compound 266, N-(3-Bromo-benzo[b]thiophen-2-yl)-N-(cyclopropylmethyl)-N′,N′-dimethylsulfamide], for which the IC50 under setting [1] was determined as 39 nM. The inhibition at 0.2 µM under setting [2] is 86%.
In the case of `CCS(=O)(=O)N(Cc1ccnc(F)c1)c1cc2ccccc2s1` [Compound 847, N-(Benzo[b]thiophen-2-yl)-N-(2-fluoro-pyridin-4-ylmethyl)-ethane-sulfonamide], for the setting “0.2 μM compound, HEK293 cells stably expressing canine TRPM8, icilin activation”, the inhibition at 0.2 µM amounted to 33%.
For `O=S(=O)(c1ccccc1)N(CCN1CCOCC1)c1sc2ccccc2c1Br` [Compound 237, N-(3-Bromo-benzo[b]thiophen-2-yl)-N-(2-morpholin-4-yl-ethyl)-benzenesulfonamide], under setting [1], the concentration for half-maximal inhibition (IC50) came to 24.8 nM. In addition, under setting [2], the inhibition at 0.2 µM is 87%. Further, the inhibition at 0.5 µM under setting [3] came to 92%.
Take `Cc1c(N(Cc2ccc(F)c(C(F)(F)F)c2)S(=O)(=O)c2ccc(-c3csnn3)cc2)sc2ccccc12` [Compound 69, N-(4-Fluoro-3-trifluoromethyl-benzyl)-N-(3-methyl-benzo[b]thiophen-2-yl)-4-[1,2,3]thiadiazol-4-yl-benzenesulfonamide]: under setting [1], the concentration for half-maximal inhibition (IC50) was 3 nM. Besides, under setting [2], the inhibition at 0.2 µM is 96%.
Consider `O=S(=O)(c1cccnc1Cl)N(Cc1ccc(F)c(C(F)(F)F)c1)c1sc2ccccc2c1Br` [Compound 319, N-(3-Bromo-benzo[b]thiophen-2-yl)-N-(4-fluoro-3-trifluoromethyl-benzyl)-2-chloro-pyridin-3-ylsulfonamide], for which, under setting [1], the half-inhibitory concentration (IC50) was 24 nM. Under setting [2], the inhibition at 0.2 µM was 100%.
For `O=S(=O)(c1ccccc1)N(Cc1cccc(O)c1)c1cc2ccccc2s1` [Compound 287, N-(Benzo[b]thiophen-2-yl)-N-(3-hydroxy-benzyl)-benzenesulfonamide], the IC50 under setting [1] worked out at 29.8 nM. Besides, the inhibition at 0.5 µM under setting [3] amounted to 96%.
`CS(=O)(=O)Nc1ccc(S(=O)(=O)N(Cc2ccc(F)c(C(F)(F)F)c2)c2sc3ccccc3c2Br)cc1Br` [Compound 661, 3-Bromo-N-(3-bromo-benzo[b]thiophen-2-yl)-N-(4-fluoro-3-trifluoromethyl-benzyl)-4-methanesulfonylamino-benzenesulfonamide]: the IC50 under setting [1] was determined as 14.1 nM. In addition, under setting [2], the inhibition at 0.2 µM is 100%.
As for `COc1ccccc1CN(c1sc2ccccc2c1Br)S(=O)(=O)c1ccccc1` [Compound 160, N-(3-Bromo-benzo[b]thiophen-2-yl)-N-(2-methoxy-benzyl)-benzenesulfonamide], under setting [1], the IC50 is 35.8 nM. Under setting [3], the inhibition at 0.5 µM is 97%.
On to `CSc1ncccc1S(=O)(=O)N(Cc1ccc(F)c(C(F)(F)F)c1)c1sc2ccccc2c1C` [Compound 377, N-(3-Methyl-benzo[b]thiophen-2-yl)-N-(4-fluoro-3-trifluoromethyl-benzyl)-2-thiomethyl-pyridin-3-yl-sulfonamide], for which the “% Inh @ 0.2 (μM)” value under setting [2] amounted to 65%.
Turning to `O=C1CC[C@H](CN(c2sc3ccccc3c2Br)S(=O)(=O)c2ccccc2)N1` [Compound 258, (R)—N-(3-Bromo-benzo[b]thiophen-2-yl)-N-(5-oxo-pyrrolidin-2-ylmethyl)-benzenesulfonamide], the inhibition at 0.2 µM under setting [2] amounted to 25%.
Same read-out and setting: the result for `O=S(=O)(c1ccc(-c2nnn[nH]2)cc1)N(CCC(F)(F)F)c1sc2ccccc2c1Br` [Compound 595, N-(3-Bromo-benzo[b]thiophen-2-yl)-N-(3,3,3-trifluoro-propyl)-4-(1H-tetrazol-5-yl)-benzenesulfonamide] reads 101%.
On to `Nc1ccc(S(=O)(=O)N(Cc2ccc(F)c(C(F)(F)F)c2)c2sc3ccccc3c2Br)cc1Br` [Compound 651, 4-Amino-3-bromo-N-(3-bromo-benzo[b]thiophen-2-yl)-N-(4-fluoro-3-trifluoromethyl-benzyl)-benzenesulfonamide], for which the 50% inhibitory concentration (IC50) under setting [1] was found to be 6 nM. For the same compound, the inhibition at 0.2 µM under setting [2] came to 103%.
Consider `Cc1c(N(Cc2ccc(OC(F)(F)F)cc2)S(=O)(=O)c2cccc3cccnc23)sc2ccccc12` [Compound 21, N-(3-Methyl-benzo[b]thiophen-2-yl)-N-(4-trifluoromethoxy-benzyl)-quinoline-8-sulfonamide], for which, under setting [1], the IC50 was determined as 15 nM. For the same compound, the inhibition at 0.5 µM under setting [3] was determined as 98%.
As for `Cc1c(N(Cc2cccc(OC(F)(F)F)c2)S(=O)(=O)C2CC2)sc2ccccc12` [Compound 770, N-(3-Methyl-benzo[b]thiophen-2-yl)-N-(3-trifluoromethoxy-benzyl)-cyclopropanesulfonamide], the IC50 under setting [1] was 7.2 nM. Also, the inhibition at 0.2 µM under setting [2] worked out at 95%.
Regarding `O=S(=O)(c1ccc(C(F)(F)F)cc1)N(Cc1ccc(F)c(F)c1)c1sc2ccccc2c1Br` [Compound 156, N-(3-Bromo-benzo[b]thiophen-2-yl)-N-(3,4-difluoro-benzyl)-4-trifluoromethyl-benzenesulfonamide], the inhibition at 0.5 µM under setting [3] came out at 65%.
Consider `Cc1c(N(Cc2ccc(OC(F)(F)F)cc2)S(=O)(=O)c2ccc(C(=O)O)c(F)c2)sc2ccccc12` [Compound 774, N-(3-Methyl-benzo[b]thiophen-2-yl)-N-(4-trifluoromethoxy-benzyl)-3-fluoro-4-carboxy-benzenesulfonamide], for which the concentration for half-maximal inhibition (IC50) under setting [1] amounted to 1.3 nM. Besides, the inhibition at 0.2 µM under setting [2] amounted to 95%.
Regarding `O=S(=O)(c1ccccc1)N(CCCc1ccccc1)c1sc2ccccc2c1Br` [Compound 246, N-(3-Bromo-benzo[b]thiophen-2-yl)-N-(3-phenyl-propyl)-benzenesulfonamide], under setting [1], the IC50 turned out to be 8.8 nM. In addition, the inhibition at 0.2 µM under setting [2] was found to be 102%.
As for `CC1=C(N(CCCCC(F)(F)F)S(=O)(=O)c2ccccc2)S(=O)(=O)c2ccccc21` [Compound 621, N-(3-Methyl-1,1-dioxo-benzo[b]thiophen-2-yl)-N-(5,5,5-trifluoro-pentyl)-benzenesulfonamide], the IC50 under setting [1] was 11 nM. The inhibition at 0.2 µM under setting [2] came to 101%.
In the case of `CC(=O)c1c(N(Cc2ccc(F)c(F)c2)S(=O)(=O)c2ccccc2)sc2ccccc12` [Compound 204, N-(3-Acetyl-benzo[b]thiophen-2-yl)-N-(3,4-difluoro-benzyl)-benzenesulfonamide], the 50% inhibitory concentration (IC50) under setting [1] was 6 nM. Moreover, the inhibition at 0.5 µM under setting [3] was determined as 96%.
For `COC(=O)[C@H](C)CN(c1sc2ccccc2c1C)S(=O)(=O)c1ccccc1` [Compound 93, N-(3-Methyl-benzo[b]thiophen-2-yl)-N-[2(R)-methyl-2-carbomethoxy-ethyl]-benzenesulfonamide], the 50% inhibitory concentration (IC50) under setting [1] is 11 nM. The inhibition at 0.2 µM under setting [2] was found to be 98%.
The corresponding values for `O=c1[nH]c(-c2ccc(S(=O)(=O)N(CCCC(F)(F)F)c3sc4ccccc4c3Br)cc2)no1` [Compound 514, N-(3-Bromo-benzo[b]thiophen-2-yl)-N-(4,4,4-trifluoro-butyl)-4-(5-oxo-4,5-dihydro-[1,2,4]oxadiazol-3-yl)-benzenesulfonamide] are 46 nM and 100%.
With `Cc1c(N(Cc2ccc(OC(F)(F)F)cc2)S(C)(=O)=O)sc2ccccc12` [Compound 369, N-(3-Methyl-benzo[b]thiophen-2-yl)-N-(4-trifluoromethoxy-benzyl)-methanesulfonamide], the IC50 under setting [1] came out at 18 nM. In addition, under setting [2], the inhibition at 0.2 µM was 98%.
